The values below come from patent publication US9586951B2 (FUJIFILM Corporation, priority 2013, dated 2017).

For the assay, the target named is T1, ATM (Homo sapiens, UniProt Q13315).
T1 construct: detecting phosphorylation of Chk2 in a human non-small cell lung cancer cell line NCI-H460 (ATCC company); host or cells: NCI-H460 human non-small cell lung cancer cells
T1 sequence (Q13315 whole entry): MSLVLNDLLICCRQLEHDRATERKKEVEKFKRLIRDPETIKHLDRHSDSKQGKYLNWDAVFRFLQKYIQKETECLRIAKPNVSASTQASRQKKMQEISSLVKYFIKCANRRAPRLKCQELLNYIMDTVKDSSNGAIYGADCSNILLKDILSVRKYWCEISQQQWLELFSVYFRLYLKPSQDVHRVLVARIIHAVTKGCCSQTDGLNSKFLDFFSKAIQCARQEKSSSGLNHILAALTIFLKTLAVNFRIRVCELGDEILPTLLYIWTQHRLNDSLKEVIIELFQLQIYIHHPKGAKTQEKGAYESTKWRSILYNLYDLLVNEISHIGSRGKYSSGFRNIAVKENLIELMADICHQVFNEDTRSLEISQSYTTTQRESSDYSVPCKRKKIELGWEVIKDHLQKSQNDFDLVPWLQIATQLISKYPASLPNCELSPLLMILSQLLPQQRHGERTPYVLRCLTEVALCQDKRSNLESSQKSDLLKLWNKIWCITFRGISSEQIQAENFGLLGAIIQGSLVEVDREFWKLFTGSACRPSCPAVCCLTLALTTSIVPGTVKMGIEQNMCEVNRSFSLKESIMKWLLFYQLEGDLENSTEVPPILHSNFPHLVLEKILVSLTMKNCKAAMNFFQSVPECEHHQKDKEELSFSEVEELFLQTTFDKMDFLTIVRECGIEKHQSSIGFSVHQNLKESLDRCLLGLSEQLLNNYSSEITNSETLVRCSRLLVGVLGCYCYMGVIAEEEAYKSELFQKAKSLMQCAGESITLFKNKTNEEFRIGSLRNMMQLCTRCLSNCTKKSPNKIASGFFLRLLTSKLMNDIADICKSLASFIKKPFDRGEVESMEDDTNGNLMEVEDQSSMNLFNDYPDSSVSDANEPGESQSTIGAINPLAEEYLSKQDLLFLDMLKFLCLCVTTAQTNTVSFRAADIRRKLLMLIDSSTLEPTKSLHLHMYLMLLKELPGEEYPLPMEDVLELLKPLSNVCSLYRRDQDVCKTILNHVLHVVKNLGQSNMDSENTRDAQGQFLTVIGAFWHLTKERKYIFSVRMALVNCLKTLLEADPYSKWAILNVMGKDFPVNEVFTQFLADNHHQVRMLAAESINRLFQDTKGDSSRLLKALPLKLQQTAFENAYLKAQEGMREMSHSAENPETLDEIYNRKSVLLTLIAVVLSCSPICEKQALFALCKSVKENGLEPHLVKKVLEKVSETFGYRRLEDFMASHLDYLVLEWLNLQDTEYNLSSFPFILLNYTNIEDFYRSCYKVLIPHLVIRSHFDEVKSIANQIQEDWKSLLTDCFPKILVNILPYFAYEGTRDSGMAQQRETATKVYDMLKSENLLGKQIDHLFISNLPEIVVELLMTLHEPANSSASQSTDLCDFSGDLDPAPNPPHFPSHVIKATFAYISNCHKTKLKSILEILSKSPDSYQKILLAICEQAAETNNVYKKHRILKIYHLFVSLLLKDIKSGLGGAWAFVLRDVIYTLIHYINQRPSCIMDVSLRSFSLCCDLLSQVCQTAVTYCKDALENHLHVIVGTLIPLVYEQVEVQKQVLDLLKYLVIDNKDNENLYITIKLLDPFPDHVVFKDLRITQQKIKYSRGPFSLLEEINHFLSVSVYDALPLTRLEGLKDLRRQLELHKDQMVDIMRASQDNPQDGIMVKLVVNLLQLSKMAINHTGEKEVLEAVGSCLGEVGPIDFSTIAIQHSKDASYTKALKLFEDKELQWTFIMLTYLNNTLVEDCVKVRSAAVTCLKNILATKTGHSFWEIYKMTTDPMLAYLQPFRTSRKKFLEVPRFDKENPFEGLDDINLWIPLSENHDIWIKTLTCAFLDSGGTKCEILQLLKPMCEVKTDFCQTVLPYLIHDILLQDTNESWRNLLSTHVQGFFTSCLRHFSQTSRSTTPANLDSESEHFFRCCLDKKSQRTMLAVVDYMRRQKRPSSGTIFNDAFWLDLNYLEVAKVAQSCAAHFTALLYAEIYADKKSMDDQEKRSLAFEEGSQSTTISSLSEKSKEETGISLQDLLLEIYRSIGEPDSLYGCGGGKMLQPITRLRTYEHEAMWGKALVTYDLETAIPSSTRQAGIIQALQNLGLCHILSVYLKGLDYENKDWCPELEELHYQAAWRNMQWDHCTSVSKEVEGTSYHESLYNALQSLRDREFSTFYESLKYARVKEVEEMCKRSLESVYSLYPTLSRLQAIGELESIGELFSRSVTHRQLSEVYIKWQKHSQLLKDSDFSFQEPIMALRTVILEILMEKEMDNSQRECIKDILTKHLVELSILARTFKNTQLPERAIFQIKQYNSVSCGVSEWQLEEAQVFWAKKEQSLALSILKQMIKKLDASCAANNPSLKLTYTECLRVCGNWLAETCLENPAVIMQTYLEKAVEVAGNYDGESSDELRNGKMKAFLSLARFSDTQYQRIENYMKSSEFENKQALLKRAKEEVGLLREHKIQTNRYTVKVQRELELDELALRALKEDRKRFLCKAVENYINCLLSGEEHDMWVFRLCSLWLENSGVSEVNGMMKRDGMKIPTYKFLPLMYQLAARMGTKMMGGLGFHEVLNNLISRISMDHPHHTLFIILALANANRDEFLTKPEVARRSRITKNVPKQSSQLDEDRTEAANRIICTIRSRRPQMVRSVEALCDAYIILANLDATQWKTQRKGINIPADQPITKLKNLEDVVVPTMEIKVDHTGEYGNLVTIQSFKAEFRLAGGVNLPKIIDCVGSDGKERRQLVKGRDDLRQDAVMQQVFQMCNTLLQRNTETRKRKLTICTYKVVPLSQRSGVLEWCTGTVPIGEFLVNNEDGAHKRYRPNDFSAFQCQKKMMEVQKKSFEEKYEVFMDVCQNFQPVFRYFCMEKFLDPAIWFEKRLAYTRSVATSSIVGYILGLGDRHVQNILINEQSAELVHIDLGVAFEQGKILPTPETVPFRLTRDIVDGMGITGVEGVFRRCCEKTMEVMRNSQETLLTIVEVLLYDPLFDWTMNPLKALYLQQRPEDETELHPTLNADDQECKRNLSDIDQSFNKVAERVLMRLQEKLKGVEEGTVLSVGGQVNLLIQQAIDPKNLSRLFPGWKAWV
As to the kind of experiment: ATM inhibition test (phosphorylation of Chk2 generated by ionizing radiation, AlphaScreen SureFire). The assay is classed as cell-based. To be noted: phosphorylated Chk2 in NCI-H460 cells, ionizing radiation 8Gy, 1 hour after test compound treatment; read-out: ATM inhibitory activity. Put shortly: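 NCI-H460 cells treated with compound for 1 hour, then irradiated with 8Gy and incubated 1 hour at 37° C. Phospho-Chk2 measured by AlphaScreen SureFire. Inhibition ratio calculated relative to untreated irradiated and non-irradiated wells.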
As for `COc1cnccc1CNc1ccc2c(c1)Cc1cccc(-c3cc(N4CCOCC4)cc(=O)[nH]3)c1O2` [Example 2-14-9, 6-(7-(((3-Methoxypyridin-4-yl)methyl)amino)-9H-xanthen-4-yl)-4-morpholino pyridin-2(1H)-one], the IC50 is 100 to 500 nM.
To `O=c1cc(N2CCOCC2)cc(-c2cccc3c2Oc2ccc(NCc4ccc(-n5cccn5)nc4)cc2C3)[nH]1` [Example 2-2-31, 6-(7-(((6-(1H-Pyrazol-1-yl)pyridin-3-yl)methyl)amino)-9H-xanthen-4-yl)-4-morpholino pyridin-2(1H)-one] belongs 100 to 500 nM; to `CCOc1ccc(CNc2ccc3c(c2)Cc2cccc(-c4cc(N5CCOCC5)cc(=O)[nH]4)c2O3)cn1` [Example 2-2-23, 6-(7-(((6-Ethoxypyridin-3-yl)methyl)amino)-9H-xanthen-4-yl)-4-morpholino pyridin-2(1H)-one], 100 to 500 nM.
To `COc1ccc(CCN2CCC(Nc3ccc4c(c3)Cc3cccc(-c5cc(N6CCOCC6)cc(=O)[nH]5)c3O4)CC2)cc1` [Example 2-30-2, 6-(7-((1-(4-Methoxyphenethyl)piperidin-4-yl)amino)-9H-xanthen-4-yl)-4-morpholino pyridin-2 (1H)-one] belongs 100 to 500 nM; to `COCCN1CCC(C(Nc2ccc3c(c2)Sc2cccc(-c4cc(N5CCOCC5)cc(=O)[nH]4)c2S3)c2ccc(C)cn2)CC1` (stereo not drawn) [Example 1-56-7, 6-(7-(((1-(2-Methoxyethyl)piperidin-4-yl)(5-methylpyridin-2-yl)methyl)amino)thianthren-1-yl)-4-morpholino pyridin-2(1H)-one], less than 100 nM; to `Nc1ccc2c(c1)Cc1c(F)ccc(-c3cc(N4CCOCC4)cc(=O)[nH]3)c1O2` [Example 2-43, 6-(7-Amino-1-fluoro-9H-xanthen-4-yl)-4-morpholinopyridin-2(1H)-one], 500 to 2000 nM.
To `CC(Nc1ccc2c(c1)Cc1cccc(-c3cc(N4CCOCC4)cc(=O)[nH]3)c1O2)c1cccc(F)n1` (single isomer, unassigned) [Example 2-14-87-2, 6-(7-((1-(6-fluoropyridin-2-yl)ethyl)amino)-9H-xanthen-4-yl)-4-morpholinopyridin-2(1H)-one] belongs 100 to 500 nM; to `CC(Nc1ccc2c(c1)Cc1cccc(-c3cc(N4CCOCC4)cc(=O)[nH]3)c1O2)c1ncc(CN2CCOCC2)cn1` (stereo not drawn) [Example 2-14-67, 4-Morpholino-6-(7-((1-(5-(morpholinomethyl)pyrimidin-2-yl)ethyl)amino)-9H-xanthen-4-yl)pyridin-2 (1H)-one], 500 to 2000 nM.
Turning to `CCC(C(=O)Nc1ccc2c(c1)Sc1cccc(-c3cc(N4CCOCC4)cc(=O)[nH]3)c1S2)N1CCOCC1` (stereo not drawn) [Example 1-6-2, 2-Morpholino-N-(6-(4-morpholino-6-oxo-1,6-dihydropyridin-2-yl)thianthren-2-yl)butanamide], the IC50 was 100 to 500 nM.
As for `CN(C)CC(CN1CCOCC1)Nc1ccc2c(c1)Sc1cccc(-c3cc(N4CCOCC4)cc(=O)[nH]3)c1S2` (stereo not drawn) [Example 9-3, 6-(7-((1-(Dimethylamino)-3-morpholinopropan-2-yl)amino)thianthren-1-yl)-4-morpholinopyridin-2(1H)-one], the figure is 500 to 2000 nM; as for `Cc1ccc(C(CC2CC2)Nc2ccc3c(c2)Sc2cccc(-c4cc(N5CCOCC5)cc(=O)[nH]4)c2S3)nc1` (stereo not drawn) [Example 1-12-128, 6-(7-((2-Cyclopropyl-1-(5-methylpyridin-2-yl)ethyl)amino)thianthren-1-yl)-4-morpholino pyridin-2(1H)-one], 100 to 500 nM.
To `COc1cncc(C(C)Nc2ccc3c(c2)Sc2cccc(-c4cc(N5CCOCC5)cc(=O)[nH]4)c2O3)c1` (stereo not drawn) [Example 4-4-1, 6-(8-((1-(5-Methoxypyridin-3-yl)ethyl)amino)phenoxathiin-4-yl)-4-morpholinopyridin-2(1H)-one] belongs 100 to 500 nM; to `COc1ccncc1CNc1ccc2c(c1)Cc1cccc(-c3cc(N4CCOCC4)cc(=O)[nH]3)c1O2` [Example 2-2-34, 6-(7-(((4-Methoxypyridin-3-yl)methyl)amino)-9H-xanthen-4-yl)-4-morpholino pyridin-2(1H)-one], 500 to 2000 nM; to `CN1CCOc2cc(CNc3ccc4c(c3)Cc3cccc(-c5cc(N6CCOCC6)cc(=O)[nH]5)c3O4)cnc21` [Example 2-2-5, 6-(7-(((4-Methyl-3,4-dihydro-2H-pyrido[3,2-b] [1,4]oxazin-7-yl)methyl)amino)-9H-xanthen-4-yl)-4-morpholino pyridin-2 (1H)-one], 100 to 500 nM.
To `CNCC(Nc1ccc2c(c1)Sc1cccc(-c3cc(N4CCOCC4)cc(=O)[nH]3)c1S2)c1cccc(C)n1` (single isomer, unassigned) [Example 1-19-4-1, 6-(7-((2-(Methylamino)-1-(6-methylpyridin-2-yl)ethyl)amino)thianthren-1-yl)-4-morpholinopyridin-2(1H)-one] belongs 100 to 500 nM.
In the case of `Cc1ccc(CNc2ccc3c(c2)Cc2cccc(-c4cc(N5CCOCC5)cc(=O)[nH]4)c2O3)cn1` [Example 2-2-2, 6-(7-(((6-Methylpyridin-3-yl)methyl)amino)-9H-xanthen-4-yl)-4-morpholino pyridin-2 (1H)-one], the IC50 was less than 100 nM.
As for `COc1ncc(C(C)Nc2ccc3c(c2)Sc2cccc(-c4cc(N5CCOCC5)cc(=O)[nH]4)c2S3)cn1` (stereo not drawn) [Example 1-12-76], the IC50 lay in the range of 100 to 500 nM.
To `O=C(Nc1ccc2c(c1)Cc1cccc(-c3cc(N4CCOCC4)cc(=O)[nH]3)c1O2)c1cc(Br)ccn1` [Example 2-24, 4-bromo-N-(5-(4-morpholino-6-oxo-1,6-dihydropyridin-2-yl)-9H-xanthen-2-yl)picolinamide] belongs 500 to 2000 nM; to `CC1CCCCN1CC(CO)Nc1ccc2c(c1)Sc1cccc(-c3cc(N4CCOCC4)cc(=O)[nH]3)c1S2` (single isomer, unassigned) [Example 1-37-7, 6-(7-((1-Hydroxy-3-(2-methylpiperidin-1-yl)propan-2-yl)amino)thianthren-1-yl)-4-morpholino pyridin-2(1H)-one], 500 to 2000 nM; to `O=c1cc(N2CCOCC2)cc(-c2cccc3c2Sc2ccc(NCc4cccnn4)cc2C3)[nH]1` [Example 3-8-12], 500 to 2000 nM.
To `O=c1cc(N2CCOCC2)cc(-c2cccc3c2Sc2ccc(NC4CCCN(C5CCCC5)C4)cc2S3)[nH]1` (stereo not drawn) [Example 1-24-5, 6-(7-((1-Cyclopentylpiperidin-3-yl)amino)thianthren-1-yl)-4-morpholino pyridin-2(1H)-one] belongs 100 to 500 nM; to `CC(Nc1ccc2c(c1)Sc1cccc(-c3cc(N4CCOCC4)cc(=O)[nH]3)c1S2)c1cc(Cl)ncn1` (stereo not drawn) [Example 1-12-83, 6-(7-((1-(6-Chloropyrimidin-4-yl)ethyl)amino)thianthren-1-yl)-4-morpholino pyridin-2 (1H)-one], 100 to 500 nM.
As for `CC(CCN1CCN(C)CC1)Nc1ccc2c(c1)Sc1cccc(-c3cc(N4CCOCC4)cc(=O)[nH]3)c1S2` (stereo not drawn) [Example 1-42-2, 6-(7-((4-(4-Methylpiperazin-1-yl)butan-2-yl)amino)thianthren-1-yl)-4-morpholino pyridin-2(1H)-one], the figure is 100 to 500 nM; as for `Cc1ccc(CNc2ccc3c(c2)Sc2cccc(-c4cc(N5CCOCC5)cc(=O)[nH]4)c2S3)s1` [Example 1-12-57, 6-(7-(((5-Methylthiophen-2-yl)methyl)amino)thianthren-1-yl)-4-morpholino pyridin-2 (1H)-one], 100 to 500 nM.
